One data set has as its system MDA-MB-231 cells. In words: Inhibition of in vitro proliferation of tumor cells by compounds (CTG, 6 days). In kind it is cell-based. The note with it: Homo sapiens, MDA-MB-231, 144 h, read-out: MDA-MB-231 IC50 (nM). The protocol:
To test the inhibitory activity of the pharmaceutical compounds on the in vitro proliferation of NCI-N87, JIMT-1 and MBA-MB-231 tumor cells. The cells were treated with compounds at different concentrations in vitro, and after 6 days of culture, the proliferation of cells was detected using CTG (CellTiter-Glo® Luminescent Cell Viability Assay, Promega, Cat. No. G7558) reagents, and the in vitro activity of the compounds was evaluated according to the IC50 value. • 1. Culturing of cells: NCI-N87/JIMT-1/MBA-MB-231 cells were cultured in RPMI-1640 medium containing 10% FBS. • 2. Preparation of cells: NCI-N87/JIMT-1/MBA-MB-231 cells in logarithmic phase were taken, washed with PBS once, and digested with 2-3 mL of trypsin for 2-3 min. After the cells were digested completely, 10-15 mL of cell culture was added to elute the digested cells. The eluate was centrifuged at 1000 rpm for 5 min, and the supernatant was discarded. The resulting cells were resuspended in 10-20 mL of cell culture to obtain a single cell suspension. • 3. Cell plating: the NCI-N87/JIMT-1/MBA-MB-231 single cell suspension was mixed well and adjusted to a viable cell density of 6×10^4 cells/mL with cell culture. The cell suspension with the adjusted density was mixed well and added to a 96-well cell culture plate at 50 μL/well. The culture plate was incubated in an incubator for 18 h (37° C., 5% CO2). • 4. Preparation of compounds: the compounds were dissolved in DMSO to obtain stock solutions at an initial concentration of 10 mM. There were 8 concentrations in total for the small molecule compounds: 300 nM, 100 nM, 30 nM, 10 nM, 3 nM, 1 nM, 0.3 nM, and 0.1 nM. • 5. Sample adding: the prepared samples to be detected at different concentrations were added to the culture plate, and two duplicate wells were set for each sample. The culture plate was incubated in an incubator for 6 days (37° C., 5% CO2). • 6. Color developing: the 96-well cell culture plate was taken out, added with the CTG reagent at 50 μL/well, and incubated at room temperature for 10 min. • 7. Plate reading: the 96-well cell culture plate was taken out, placed in a microplate reader, and measured for the chemiluminescence using the microplate reader. Data analysis: data were processed and analyzed using Microsoft Excel and Graphpad Prism 5.

The next data set deals with JIMT-1 cells. The data set is described as above. The format is cell-based. The note with it: Homo sapiens, JIMT-1, 144 h, read-out: JIMT-1 IC50 (nM). The protocol: (§1) To test the inhibitory activity of the pharmaceutical compounds on the in vitro proliferation of NCI-N87, JIMT-1 and MBA-MB-231 tumor cells. The cells were treated with the compounds at different concentrations in vitro, and after 6 days of culture, the proliferation of cells was detected using the CTG (CellTiter-Glo® Luminescent Cell Viability Assay, Promega, Cat. No. G7558) reagent, and the in vitro activity of the compounds was evaluated according to the IC50 value.
(§2) In the following, the test for the inhibition of the in vitro proliferation of NCI-N87 cells was taken as an example to illustrate the method of the present application for testing the inhibitory activity of the compounds of the present application on the in vitro proliferation of tumor cells. The method was also applicable to, but not limited to, the test for the inhibitory activity on the in vitro proliferation of other tumor cells. • 1. Culturing of cells: NCI-N87 cells were cultured in RPMI-1640 medium containing 10% FBS. • 2. Preparation of cells: NCI-N87 cells in logarithmic phase were taken, washed with PBS once, and digested with 2-3 mL of trypsin for 2-3 min. After the cells were digested completely, 10-15 mL of cell culture was added to elute the digested cells. The eluate was centrifuged at 1000 rpm for 5 min, and the supernatant was discarded. The resulting cells were resuspended in 10-20 mL of cell culture to obtain a single cell suspension. • 3. Cell plating: the NCI-N87 single cell suspension was mixed well and adjusted to a viable cell density of 6×10^4 cells/mL with cell culture. The cell suspension with the adjusted density was mixed well and added to a 96-well cell culture plate at 50 μL/well. The culture plate was incubated in an incubator for 18 h (37° C., 5% CO2). • 4. Preparation of compounds: the compounds were dissolved in DMSO to obtain stock solutions at an initial concentration of 10 mM. There were 8 concentrations in total for the small molecule compounds: 300 nM, 100 nM, 30 nM, 10 nM, 3 nM, 1 nM, 0.3 nM, and 0.1 nM. • 5. Sample adding: the prepared samples to be detected at different concentrations were added to the culture plate, and two duplicate wells were set for each sample. The culture plate was incubated in an incubator for 6 days (37° C., 5% CO2). • 6. Color developing: the 96-well cell culture plate was taken out, added with the CTG reagent at 50 μL/well, and incubated at room temperature for 10 min. • 7. Plate reading: the 96-well cell culture plate was taken out, placed in a microplate reader, and measured for the chemiluminescence using the microplate reader. Data Analysis
(§3) Data were processed and analyzed using Microsoft Excel and Graphpad Prism 5.
(§4) To test the inhibitory activity of the pharmaceutical compounds on the in vitro proliferation of NCI-N87, JIMT-1 and MBA-MB-231 tumor cells. The cells were treated with compounds at different concentrations in vitro, and after 6 days of culture, the proliferation of cells was detected using CTG (CellTiter-Glo® Luminescent Cell Viability Assay, Promega, Cat. No. G7558) reagents, and the in vitro activity of the compounds was evaluated according to the IC50 value. • 1. Culturing of cells: NCI-N87/JIMT-1/MBA-MB-231 cells were cultured in RPMI-1640 medium containing 10% FBS. • 2. Preparation of cells: NCI-N87/JIMT-1/MBA-MB-231 cells in logarithmic phase were taken, washed with PBS once, and digested with 2-3 mL of trypsin for 2-3 min. After the cells were digested completely, 10-15 mL of cell culture was added to elute the digested cells. The eluate was centrifuged at 1000 rpm for 5 min, and the supernatant was discarded. The resulting cells were resuspended in 10-20 mL of cell culture to obtain a single cell suspension. • 3. Cell plating: the NCI-N87/JIMT-1/MBA-MB-231 single cell suspension was mixed well and adjusted to a viable cell density of 6×10^4 cells/mL with cell culture. […]

Another data set deals with T1, P-gp (Homo sapiens, UniProt P08183).
T1 construct: endogenous in cells; host or cells: Caco-2
T1 sequence (P08183 whole entry): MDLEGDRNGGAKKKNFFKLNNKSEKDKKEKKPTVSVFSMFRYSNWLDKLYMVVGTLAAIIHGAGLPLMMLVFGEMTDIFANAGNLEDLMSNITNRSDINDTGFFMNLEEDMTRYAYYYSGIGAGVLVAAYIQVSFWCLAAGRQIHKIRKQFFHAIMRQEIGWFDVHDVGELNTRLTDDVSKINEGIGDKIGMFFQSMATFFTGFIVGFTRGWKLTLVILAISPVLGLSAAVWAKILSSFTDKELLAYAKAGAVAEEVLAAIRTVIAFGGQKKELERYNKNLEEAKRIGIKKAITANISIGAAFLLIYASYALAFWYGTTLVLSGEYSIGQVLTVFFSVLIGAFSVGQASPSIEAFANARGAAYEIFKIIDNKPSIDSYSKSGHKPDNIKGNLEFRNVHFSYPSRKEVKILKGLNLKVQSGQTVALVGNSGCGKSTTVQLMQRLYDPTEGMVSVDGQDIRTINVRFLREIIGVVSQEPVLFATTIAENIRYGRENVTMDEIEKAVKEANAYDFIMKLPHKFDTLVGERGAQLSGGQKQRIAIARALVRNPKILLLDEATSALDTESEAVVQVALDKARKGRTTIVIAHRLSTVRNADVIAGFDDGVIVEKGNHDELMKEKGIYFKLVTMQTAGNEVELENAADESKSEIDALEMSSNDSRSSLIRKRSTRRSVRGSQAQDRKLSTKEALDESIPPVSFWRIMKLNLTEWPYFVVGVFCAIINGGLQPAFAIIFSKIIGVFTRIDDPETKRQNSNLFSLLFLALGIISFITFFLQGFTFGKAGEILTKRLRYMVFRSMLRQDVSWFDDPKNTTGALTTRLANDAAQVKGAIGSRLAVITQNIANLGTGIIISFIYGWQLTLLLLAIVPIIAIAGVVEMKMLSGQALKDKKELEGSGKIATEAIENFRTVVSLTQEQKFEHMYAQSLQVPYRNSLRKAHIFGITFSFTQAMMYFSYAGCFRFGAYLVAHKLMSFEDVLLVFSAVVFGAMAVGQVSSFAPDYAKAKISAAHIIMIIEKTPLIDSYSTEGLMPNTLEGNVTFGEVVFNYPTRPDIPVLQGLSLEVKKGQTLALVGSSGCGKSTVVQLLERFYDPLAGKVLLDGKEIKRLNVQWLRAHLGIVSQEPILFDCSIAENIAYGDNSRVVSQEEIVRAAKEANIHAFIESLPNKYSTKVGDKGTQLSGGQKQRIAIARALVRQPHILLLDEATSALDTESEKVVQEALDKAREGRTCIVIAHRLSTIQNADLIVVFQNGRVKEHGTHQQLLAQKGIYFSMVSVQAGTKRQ
In words: Study on transporter substrates in Caco-2 cell model. The format is in vitro ADME. The note with it: Caco-2 cell model. The protocol:
The resistance of each well was recorded. […] 2. […] The plate was vortexed for 10 min. The samples were centrifuged. […] HBSS was added to the basolateral compartment. […] 3. Data Analysis
Data were calculated using Microsoft Excel.

The target in another data set is T2, BCRP (Homo sapiens, UniProt Q9UNQ0).
T2 sequence (Q9UNQ0 1-655): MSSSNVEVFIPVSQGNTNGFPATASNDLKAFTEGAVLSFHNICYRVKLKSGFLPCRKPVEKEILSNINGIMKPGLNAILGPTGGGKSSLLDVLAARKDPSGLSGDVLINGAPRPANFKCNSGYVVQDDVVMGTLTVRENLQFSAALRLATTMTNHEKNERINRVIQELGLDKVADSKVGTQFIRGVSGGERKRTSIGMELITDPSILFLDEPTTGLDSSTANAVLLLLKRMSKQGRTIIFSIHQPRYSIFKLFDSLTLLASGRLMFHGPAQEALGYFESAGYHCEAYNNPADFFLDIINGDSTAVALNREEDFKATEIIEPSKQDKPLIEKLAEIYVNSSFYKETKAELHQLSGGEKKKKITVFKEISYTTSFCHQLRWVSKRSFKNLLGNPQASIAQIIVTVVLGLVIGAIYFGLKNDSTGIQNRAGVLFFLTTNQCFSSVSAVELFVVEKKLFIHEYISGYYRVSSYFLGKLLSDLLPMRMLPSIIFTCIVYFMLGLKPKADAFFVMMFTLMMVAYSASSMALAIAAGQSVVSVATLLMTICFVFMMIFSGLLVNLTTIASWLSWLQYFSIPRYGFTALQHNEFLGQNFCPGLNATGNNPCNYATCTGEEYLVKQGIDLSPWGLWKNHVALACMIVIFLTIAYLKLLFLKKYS
The data set is described as above.

In the next data set the test system is NCI-N87 cells. In words: Inhibition of in vitro proliferation of tumor cells by compounds (CTG, 6 days). The format is cell-based. The note with it: Homo sapiens, NCI-N87, 144 h, read-out: NCI-N87 IC50 (nM). The protocol:
as §1, §2, §3, §4

Method for BCRP: To investigate whether the compounds of the present invention is a substrate for efflux transporters P-gp and BCRP in a Caco-2 cell model, thereby providing preclinical basis for analyzing the drug-drug interaction in pharmacokinetics.
• 1) Cell culture medium was added to each well of the Transwell. The HTS Transwell plate was incubated under conditions of 37° C. and 5% CO2 for 1 h prior to cell inoculation. • 2) Caco-2 cells were diluted with culture medium and the cell suspension was dispensed into filter wells of the 96-well HTS Transwell plate. […] The cell culture medium was changed periodically. • 3) Monolayer cell resistance was measured using the Millicell Epithelial Volt-Ohm detection system. The resistance of each well was recorded. After all wells were measured, the Transwell plate was put back into the incubator. TEER of each well was calculated according to the formula. The TEER value of each well should be greater than 230 ohm·cm^2. […] Preparation for Transporter Test • 1) The Caco-2 plate was taken out from the incubator. The monolayer cells were washed with pre-heated HBSS twice. The plate was then incubated at 37° C. for 30 min. • 2) Stock solutions of the compounds were prepared in DMSO and diluted with HBSS to obtain working solutions. Digoxin was used as a reference substrate for P-gp and rosuvastatin was used as a reference substrate for BCRP. Propranolol was used as a high permeability marker. • 3) The working solution (without inhibitor) was added to the Transwell insert (apical compartment) to determine the rate of drug transport in the apical to basolateral direction. The transfer buffer was added to the wells in the receiver plate (basolateral compartment). The working solution (without inhibitor) was added to the receiver plate wells (basolateral compartment) to determine the rate of drug transport in the basolateral to apical direction. The Transwell insert (apical compartment) was filled with the transport buffer. PSC833 was added to the apical and basolateral compartments to determine the rate of drug transport in the presence of P-gp inhibitors. • 4) The sample was transferred from the working solution to the quenching solution, and a sample with a time of 0 was prepared. The Transwell plate was incubated under conditions of 37° C. and 5% CO2 for 2 h. • 5) At the end of the transport cycle, the samples were transferred from the apical and basolateral wells into a new 96-well plate. Cold acetonitrile or methanol containing the appropriate internal standard (IS) was added to each well of the plate. The plate was vortexed for 10 min. The samples were centrifuged. The supernatant of an aliquot was mixed with an appropriate amount of ultrapure water (depending on the LC-MS/MS signal response and peak shape) prior to the LC-MS/MS analysis. • 6) The stock solution of lucifer yellow in DMSO was prepared and diluted with HBSS to determine the amount of lucifer yellow leakage after a 2-hour transport period. The lucifer yellow solution was added to the apical compartment. HBSS was added to the basolateral compartment. The plate was incubated at 37° C. for 30 min, and a certain amount of the solution was directly taken from the apical and basolateral wells and transferred to a new 96-well plate. The lucifer yellow fluorescence was measured in a fluorescence plate reader with 485 nm excitation and 530 nm emission (to monitor monolayer integrity).
Data were calculated using Microsoft Excel. The percentage of the compound remaining at each time point was estimated by determining the peak area ratio from the extracted ion chromatogram.
For drug transport analysis in the Caco-2 cell model, the apparent permeability coefficient (Papp) can be calculated according to the following formula, in cm/s:
[formula] • wherein the concentration C is in nM, the volume V is in μL, the time T is in s, and the area S is in cm^2.
The recovery rate is calculated according to the following formula:

Usually IC50 stands for the concentration needed to halve the response being measured. Consider `CC[C@@]1(O)C(=O)OCc2c1cc1n(c2=O)Cc2c-1nc1cc(F)c(C)c3c1c2[C@@H](NC(=O)c1ccc(O)cc1)CC3` [P-II-23, N-((1S,9S)-9-ethyl-5-fluoro-9-hydroxy-4-methyl-10,13-dioxo-2,3,9,10,13,15-hexahydro-1H,12H-benzo[de]pyrano[3′,4′:6,7]indolizino[1,2-b]quinolin-1-yl)-4-hydroxybenzamide-1-carboxamide], for which the IC50 in the data set on MDA-MB-231 cells was found to be 7.7 nM.
On the same count and under the same terms, the figure for `CC[C@@]1(O)C(=O)OCc2c1cc1n(c2=O)Cc2c-1nc1cc(F)c(C)c3c1c2[C@@H](NC(=O)C[C@H](C)N)CC3` [P-III-28, (S)-3-amino-N-((1S,9S)-9-ethyl-5-fluoro-9-hydroxy-4-methyl-10,13-dioxo-2,3,9,10,13,15-hexahydro-1H,12H-benzo[de]pyrano[3′,4′:6,7]indolizino[1,2-b]quinolin-1-yl)butanamide] is 1.2 nM; for `CC[C@@]1(O)C(=O)OCc2c1cc1n(c2=O)Cc2c-1nc1cc(F)c(C)c3c1c2[C@@H](NC(=O)CCNC)CC3` [P-III-9, N-((1S,9S)-9-ethyl-5-fluoro-9-hydroxy-4-methyl-10,13-dioxo-2,3,9,10,13,15-hexahydro-1H,12H-benzo[de]pyrano[3′,4′:6,7]indolizino[1,2-b]quinolin-1-yl)-3-methylaminopropanamide] it is 28.9 nM.
On to `CC[C@@]1(O)C(=O)OCc2c1cc1n(c2=O)Cc2c-1nc1cc(F)c(C)c3c1c2[C@@H](NC(=O)C[C@@H](N)CO)CC3` [P-III-29, (R)-3-amino-N-((1S,9S)-9-ethyl-5-fluoro-9-hydroxy-4-methyl-10,13-dioxo-2,3,9,10,13,15-hexahydro-1H,12H-benzo[de]pyrano[3′,4′:6,7]indolizino[1,2-b]quinolin-1-yl)-4-hydroxybutanamide], for which the figures for the IC50 in the data set on MDA-MB-231 cells and in the data set on JIMT-1 cells were 8.6 nM and 16.7 nM, respectively.
The matching figures for `CC[C@@]1(O)C(=O)OCc2c1cc1n(c2=O)Cc2c-1nc1cc(F)c(C)c3c1c2[C@@H](NC(=O)c1ccc(O)cn1)CC3` [P-II-24, N-((1S,9S)-9-ethyl-5-fluoro-9-hydroxy-4-methyl-10,13-dioxo-2,3,9,10,13,15-hexahydro-1H,12H-benzo[de]pyrano[3′,4′:6,7]indolizino[1,2-b]quinolin-1-yl)-5-hydroxypicolinamide]: 8.5 nM and 20.8 nM.
In the case of `CC[C@@]1(O)C(=O)OCc2c1cc1n(c2=O)Cc2c-1nc1cc(F)c(C)c3c1c2[C@@H](NC(=O)CS)CC3` [P-III-1, N-((1S,9S)-9-ethyl-5-fluoro-9-hydroxy-4-methyl-10,13-dioxo-2,3,9,10,13,15-hexahydro-1H,12H-benzo[de]pyrano[3′,4′:6,7]indolizino[1,2-b]quinolin-1-yl)-2-mercaptoacetamide], the IC50 with MDA-MB-231 cells turned out to be 28.9 nM.
Consider `CC[C@@]1(O)C(=O)OCc2c1cc1n(c2=O)Cc2c-1nc1cc(F)c(C)c3c1c2[C@@H](NC(=O)CO)CC3` [Dxd, reference compound], for which the P-gp substrate entry at P-gp was “not a transporter P-gp substrate”. Also, on BCRP (Caco-2, KO143 +), the “Recovery rate (%) AP-BL” value is 76.51% and the “Recovery rate (%) BL-AP” value stood at 74.87%. Further, at BCRP (Caco-2, KO143 −), the Efflux ratio worked out at 74.03, the “Recovery rate (%) AP-BL” value is on record as 57.76% and the “Recovery rate (%) BL-AP” value is on record as 56.20%. Besides, at BCRP (Caco-2, KO143 −, 2 h), the “Papp (A-B) (10^−6, cm/s)” value is given as 0.07 10^−6, cm/s and the “Papp (B-A) (10^−6, cm/s)” value is 4.82 10^−6, cm/s. For the same molecule, the BCRP substrate entry at BCRP (Caco-2 cell model, from rate of change of efflux ratio) is “transporter BCRP substrate and Yes”.
With `CC[C@@]1(O)C(=O)OCc2c1cc1n(c2=O)Cc2c-1nc1cc(F)c(C)c3c1c2[C@@H](NC(=O)CC(C)(C)O)CC3` [P-III-21, N-((1S,9S)-9-ethyl-5-fluoro-9-hydroxy-4-methyl-10,13-dioxo-2,3,9,10,13,15-hexahydro-1H,12H-benzo[de]pyrano[3′,4′:6,7]indolizino[1,2-b]quinolin-1-yl)-3-hydroxy-3-methylbutanamide], the figures for the IC50 in the data set on MDA-MB-231 cells, in the data set on NCI-N87 cells and in the data set on JIMT-1 cells were 2.88 nM, 4.75 nM and 2.87 nM, respectively.

Values taken from patent US11952384B2, “Anti-tumor compound and preparation method and use thereof” (DUALITY BIOLOGICS (SUZHOU) CO., LTD., priority 2020, dated 2024).
